In a melting point compilation (Tetko et al.; mined from patent text by program, amines drawn as free bases though some values may be those of a salt):

Point of comparison: `C=CC(c1ccccc1)c1cc(C)c2c(c1O)C(=NO)CC2` (configuration not stated), melting point 146 °C. Against it:
- COc1ccc2c(c1)CC(C(N)=O)N2C(C)=O (configuration not stated) — higher, 196 to 197 °C
- CCCCOCCOc1ccc(-c2ccc3c(c2)C=C(C(=O)Nc2ccc(CSc4nnc(C)o4)cc2)CCN3CC(C)C)cc1 — lower, 107 to 109 °C
- COc1ccc2cc(-n3c(=O)[nH]c4ccccc43)cc(C)c2n1 — higher, 280 °C
- CCCCCCCCC1(CCCCCCCC)c2cc(Br)ccc2-c2ccc(Br)cc21 — lower, 52 to 54 °C
- Cn1c(=O)cnc2cccc(Oc3cc(-c4ccc(C(F)(F)F)cc4)ncn3)c21 — higher, 158 °C
- O=C(O)CN(CC(=O)O)C(=O)C(=O)c1ccc(OCCCCCCCCCCCCOc2ccccc2)cc1 — lower, 130 to 132 °C
- O=C(O)c1[nH]c(=O)c2ccc(Cl)cc2c1-c1ccccc1 — higher, > 300 °C
- CC1(C)Oc2ccc(C#N)cc2[C@@H](NC2=CC(=O)CC2)[C@@H]1O (relative stereo) — higher, 174 to 176 °C
- CCC(=O)NC(=O)CCCCBr — lower, 94 to 97 °C
- CCCCC(O)c1cccc(O)c1 (configuration not stated) — lower, 120 to 122 °C
- CCc1cccc2c3c([nH]c12)C(C)(CC(=O)O)CCCC3 (configuration not stated) — higher, 148 to 151 °C
- CCCC(C)(C(=O)N(C)C)n1cc(C)c(-c2ccccc2)n1 (configuration not stated) — lower, 90 to 92 °C
- Cn1c(Cl)c(C=O)c2cccc(Cl)c21 — higher, 185 to 187 °C
- O=C1C=CC(=Nc2ccccc2C(=O)N2CCCCC2)C=C1 — lower, 74 to 76 °C
- COC1CNCc2cc3ccccc3n21 (configuration not stated) — lower, 120 to 122 °C
- CCc1ccnc(C(=O)c2[nH]c3cc(Cl)ccc3c2CC(=O)O)c1Cl — higher, 158 °C
- CCOC(=O)c1cnc2[nH]ncc2c1O — higher, 275 °C
- O=C(NNc1ccc(Br)cc1)c1c(F)cccc1F — higher, 172 °C
- CCOC(=O)C(C(=O)OCC)C(N)c1ccc([N+](=O)[O-])cc1C(N)C(C(=O)OCC)C(=O)OCC (configuration not stated) — higher, 148 to 151 °C
- CCOC(=O)NCc1ccc2[nH]cc(CC#N)c2c1 — lower, 104 to 106 °C
- CN1CC(=O)C(C#N)=C1N — higher, 300 °C
- Cc1c(F)cc(C(=O)O)c(Cl)c1[N+](=O)[O-] — higher, 186 to 188 °C
- CCCC(O)c1cc2c(=O)n(NS(C)(=O)=O)c(=O)[nH]c2cc1C(F)(F)F (configuration not stated) — higher, 223 to 226 °C
- NC(=O)Cc1ccc2[nH]cc(CCN3C(=O)c4ccccc4C3=O)c2c1 — higher, 191 to 193 °C
- CNC(=O)c1c(N)n(C2CCCC2)c2nc(C#CC(C)(O)CO)ccc2c1=O (configuration not stated) — higher, 210 °C
- FC(F)c1nc2ccccc2n1-c1nc(Oc2ccccc2)nc(N2CCOCC2)n1 — higher, 228 to 231 °C
- O=C(NCCO)C1CCNCC1 — lower, 107 to 108 °C
- OCCOCCNCc1ccc(-c2cc3ncnc(Nc4ccc5[nH]ccc5c4)c3s2)cc1 — lower, 111 to 119 °C
- CCCCNc1c(C(=O)OCC)c(C)nc(Cl)c1[N+](=O)[O-] — lower, 33 to 35 °C
- CC(=O)c1cc2cnccc2n1S(=O)(=O)c1ccccc1 — higher, 205 °C
- COc1ccc(C2Sc3ccccc3N(CCN(C)C)C(=O)C2OC(C)=O)cc1 (configuration not stated) — lower, 134 to 135 °C
- O=C(/C=C/c1cccc(NC(=O)/C=C/c2ccc3c(c2)OCO3)c1)NO — lower, 128 °C
- Nc1nc(Cn2c(-c3ccc(Oc4cncnc4)cc3)ccc2-c2ccccc2Cl)ccc1NCCO — lower, 78 to 82 °C
- COC(=O)c1ccc(Cl)c(C=O)c1SC — lower, 66.5 to 68.1 °C
- CCCC(=O)n1ccc(-c2ccc(C(=O)N3Cc4cccn4Cc4ccccc43)cc2)n1 — lower, 105 to 110 °C
- CCS(=O)(=O)Oc1cn(C)c2cc(F)ccc2c1=O — higher, 154 to 156 °C
- CCOC(=O)c1cnoc1-c1cc(Cl)c(Cl)s1 — lower, 120 to 121 °C
- CC(C#Cc1ccc(-c2ccccc2)o1)N(O)C(N)=O (configuration not stated) — higher, 163 to 164 °C
- COc1ccc(C(=O)Nc2ccc(C(C)(C)c3noc(COc4ccccc4)n3)cc2)cc1OC — higher, 165 to 167 °C
- CC1NC(=O)NN=C1c1ccc(S)cc1 (configuration not stated) — higher, 202 to 204 °C
- CC(C)C(=O)c1c(C(C)(C)C)cc(C=[N+]([O-])C(C)(C)C)cc1C(C)(C)C — higher, 197 to 208 °C
- CNC(=O)N1N=C(c2ccc([N+](=O)[O-])c(C)c2)c2cc3c(cc2C=C1C)OCO3 — higher, 246 to 248 °C
- CS(=O)(=O)Nc1ccccc1OCCCN1CCC(OC(c2ccsc2)c2ccsc2)CC1 — lower, 92 to 94 °C
- CC1CC(=O)NN=C1c1ccc(NC(=O)OC(C)C2CC2)cc1 (configuration not stated) — higher, 223 to 224 °C
- COC(=O)C(=CN(C)C)C(=O)c1cc(F)c(Cl)cc1Cl — lower, 107 to 109 °C
- NNc1c(Cl)c(Cl)nc(C(=O)O)c1Cl — higher, 166 to 168 °C
- BrCCC=C1c2ccccc2C=Cc2ccccc21 — lower, 88 to 89 °C
- O=C(NCc1ccccn1)OC1Cc2ccccc2N(S(=O)(=O)c2ccc(Cl)cc2)C1 (configuration not stated) — lower, 106 to 110 °C
- Cc1ccc(-n2c(=O)c3c(N4CCNCC4)cc(Cl)cc3n(Cc3ccccc3)c2=O)cc1 — lower, 120 to 124 °C
- COCCOc1ccc(CSc2cnn(C(C)(C)C)c(=O)c2Cl)cc1 — lower, 106 to 107 °C
- Cc1cccc(-c2nc3ccc(Cl)cn3c2-c2ccnc(-c3ccc(CN4CCOCC4)cc3)c2)n1 — higher, 157 °C
- CC1(C)CCC(C)(C)C1C(=O)O — lower, 114 °C
- O=C(O)[C@@H]1O[C@@H]1c1ccccc1 — lower, 81.5 to 83 °C
- CSc1nc2nc(C)cc(-c3ccccc3)n2n1 — lower, 121 to 123 °C
- CCCCCCCCCCCCCCCCCCC1CNc2ccc(C(=O)O)cc21 (racemic) — lower, 84 to 87 °C
- CCOC(=O)C(NC(C)=O)C(=O)c1ccccc1 (configuration not stated) — lower, 63 to 64 °C
- COc1ccc(N2CC(O)c3cc(Cl)sc3S2(=O)=O)cc1 (configuration not stated) — lower, 127 to 132 °C
- CCOCCc1ccc(OCCNc2ncnc3oc(C)c(C)c23)c(C)c1 — lower, 92 to 93 °C
- NC(=O)N(O)CC=Cc1cccc(F)c1Sc1ccc(F)cc1 — lower, 127 to 128 °C
- OC(CCN1CCC(c2ccc(F)cc2)CC1)c1ccc(-c2ccccc2)cc1 (configuration not stated) — lower, 129 to 132 °C
- Clc1ccc2nc(Cl)c(-c3ccccc3)cc2c1 — higher, 147 to 149 °C
- CNC(=O)c1cnn(-c2ccc(OC)cc2)c1Cl — not separable, 144 to 146 °C
- CC1(C(=O)c2c[nH]c3ncc(-c4cccc(N5CCN(S(N)(=O)=O)CC5)c4)nc23)CCCCC1 — higher, 233 to 235 °C
- CN(C)C(=S)Sc1sn(CCc2ccccc2)c(=O)c1Cl — lower, 125 to 127 °C
- COC(=O)c1ccc(C)c(-n2c(C)cc(OCc3ccccc3CNC(=O)Nc3cc(C(C)(C)C)nn3-c3cccc(OCCO)c3)c(Cl)c2=O)c1 — higher, 147 to 148 °C
- COc1cn(-c2ccc(N3CCN(C(C)(C)C)C3=O)cc2F)nc(-c2ccnn2-c2ccccc2)c1=O — higher, 238 to 239 °C
- Oc1ccc2c(c1)CCCC(c1ccccc1)=C2c1ccc(OCCCl)cc1 — higher, 238 to 240 °C
- Clc1ccc(OC(C(OCc2ccc(Cl)cc2Cl)c2ccc(Cl)cc2Cl)n2cncn2)cc1 (configuration not stated) — lower, 132 to 135 °C
- COC(=O)c1cncn1C1c2ccccc2CCC1(C)C (configuration not stated) — lower, 66 to 67.5 °C
- CC(C)C(NC(=O)C(NC(=O)C1CCCN1C(=O)OC(C)(C)C)C(Cc1ccccc1)C(=O)O)C(=O)NC(Cc1ccc(O)cc1)C(=O)OCc1ccccc1 (configuration not stated) — lower, 75 to 78 °C
- N#Cc1nn(-c2c(Cl)cc(Cl)cc2Cl)cc1C1CC1(Cl)Cl (configuration not stated) — higher, 158 °C
- O=C(O)C=CC1(Cc2ccccc2)C=CC=C(c2ccccc2)C1 (configuration not stated) — higher, 165 to 174 °C
- CC1(O)CC(=O)OC(CCCc2ccc(OCc3ccccc3)cc2)C1Br (configuration not stated) — lower, 100 to 101 °C
- O=C(Nc1ccc(C(=O)N(CCN2CCC(C(=O)c3ccc(F)cc3)CC2)c2cccnc2)cc1)c1ccccc1 — higher, 162 to 166 °C
- COc1ccc(C(=O)Nc2c(Cl)cncc2Cl)c2c1oc1ccc(Cl)cc12 — higher, > 250 °C
- OCCc1cc(-c2ccc(Cl)cc2)no1 — lower, 65.5 to 67.5 °C
- CN(C)c1ccc(NC(=O)NC2CCC2)c(C(=O)NCC2CCN(C(c3ccccc3)c3ccccc3)CC2)c1 — higher, 210 to 212 °C
- Cc1ccc(CC(=S)N[C@@H](Cc2ccccc2)C(=O)O)cc1 — lower, 92 to 93 °C
- CN(C)C=CC(=O)c1ccc2ccccc2c1 — lower, 100 to 101 °C
- N#Cc1c(N)cccc1Oc1ccccc1 — lower, 66 to 67 °C
- Cc1cc(C)c(COC2CC(n3cc(F)c(=O)[nH]c3=O)OC2CO)c(C)c1 (configuration not stated) — higher, 179 to 181 °C
- Cc1ccc2cc(CCCc3ccncc3)c(=O)n(-c3cccc([N+](=O)[O-])c3)c2n1 — higher, 165 to 166 °C
- CC(C)(C)c1noc(-c2cnc(Cl)c(Cl)c2)n1 — lower, 98 to 101 °C
- CCCCCCCNc1cccc2c1CN(c1cc(C)cc(C)c1)C2=O — lower, 68 to 69 °C
- COC(=O)c1c(Cl)ccc(C(=O)O)c1Cl — higher, 183 to 185 °C
- Nc1cccc(C(=O)Nc2ccc(-c3c[nH]c(=O)cn3)cc2)c1 — higher, > 250 °C
- CC(C)n1c(=O)n(CC2CO2)c2cc(-c3ncc(C(F)(F)F)cc3Cl)ccc21 (configuration not stated) — lower, 110 to 111 °C
- Cc1ccc2c(c1)CC(Cl)c1cc(F)ccc1S2 (configuration not stated) — lower, 63 to 64 °C
- CC(C)(C)N1CCN(Cc2ccc([N+](=O)[O-])cc2)S1(=O)=O — lower, 113 °C
- N#CCCN1C(=O)C2(OCCCO2)c2ccc(Cl)cc21 — higher, 163 to 164 °C
- COc1ccc(CN(C)CCCc2ccc(NC(=O)c3cccc4c(=O)cc(-c5ccccc5)[nH]c34)cc2)cc1OC — higher, 180 °C
- C=CC[C@H]1CC(C(=O)OC)=C[C@H](N=[N+]=[N-])[C@H]1OS(C)(=O)=O — lower, 70 to 72 °C
- COc1ccc2cccc(C(CO)CNC(=O)CF)c2c1 (configuration not stated) — lower, 49 to 51 °C
- Cc1nc(N)sc1-c1cccnc1 — higher, 190 to 191 °C
- O=C1OCCCCOC(=O)c2ccc(cc2)-c2ccc1cc2 — higher, 266 °C
- NCC1CCc2[nH]c3ccc(Cl)c(Cl)c3c2C1 (configuration not stated) — higher, 169 to 170 °C
- CCOC(=O)NNc1ccc(-c2ccc(F)cc2)nn1 — higher, 173 to 174 °C
- CCn1ncc2c(Cl)cc(-c3ccccc3)nc21 — lower, 43 to 45 °C
- O=C(O)CC(=O)OCC(Cl)(Cl)Cl — lower, 42 to 43 °C
- CSc1ccn2nc(S(=O)(=O)Nc3c(Cl)cccc3Cl)nc2n1 — higher, 239 to 243 °C
- CN1CCN(c2nc3sc4c(NCc5ccco5)ncnc4c3c3c2COC(C)(C)C3)CC1 — higher, 166 to 168 °C
